Measured values reported in patent US20260027096A1, “PHD INHIBITORS” (Oxford University Innovation Limited, priority 2023, published 2026).

Experiments:
PHD2 = PHD2 (Homo sapiens (Human), UniProt Q9GZT9); assay: PHD2 RF-MS (RapidFire LC-MS) hydroxylation assay; assay type: biochemical
Procedure: In brief, cDNA encoding for the catalytic domain of tPHD2 (181-426 residues) was cloned into the pET28a (+)/pET24a (+) vectors (Novagen), to enable production of tPHD2 (residues 181-426) protein with/without an N-terminal His6-tag. The tPHD2 (residues 181-426) encoding construct was transformed into the Escherichia coli BL21 DE3 cell line; protein production was induced with 0.5 mM […] (3-5 hr at 28° C.). […] The protein was exchanged into 50 mM Tris-HCl buffer (pH 7.5) and concentrated to % 40 mg/ml.
Tris(hydroxymethyl)aminomethane was from Fisher. Ferrous ammonium sulfate (FAS), 2-oxoglutarate (2OG) and L-ascorbic acid were from Sigma Aldrich; solutions of these were prepared freshly each day. All inhibition assays were carried out in 384-well polypropylene plates (Greiner Bio-One). PHD2 assays were performed in assay buffer (50 mM Tris. Cl pH 7.5, 50 mM NaCl). […] The final assay concentration of DMSO was kept constant at 0.5%. PHD2 protein was prepared at a concentration of 300 nM in assay buffer and 25 μl dispensed across each 384-well assay plate. The PHD2 solution was allowed to equilibrate with the inhibitors for 15 minutes at room temperature; the enzyme reaction then initiated by dispense of 25 μl of substrate (20 μM FAS, 200 µM L-ascorbic acid, 10 μM CODD peptide and 20 μM 2OG in the assay buffer. Enzyme reactions were allowed to proceed for 20 minutes at room temperature and the reaction terminated by addition of 10% formic acid (5 μl). Assay plates were then transferred to a RapidFire RF360 sampling robot (Agilent) connected to an Agilent 6530 accurate mass quadrupole-time-of-flight (Q-TOF) mass spectrometer. Assay samples were aspirated under vacuum and loaded onto a C4 solid phase extraction (SPE) cartridge. After loading the C4 SPE was washed with 0.1% formic acid in water to remove non-volatile buffer salts and then peptide was eluted from the SPE with 85% acetonitrile, 15% water containing 0.1% formic acid onto the mass spectrometer. Peptide charge states were monitored in positive mode. Ion chromatogram data were extracted for the +2 charge state and peak area data integrated using RapidFire Integrator software (Agilent). % conversion of the CODD peptide substrate to the +16 hydroxylated peptide was calculated using the equation: % conversion=100×hydroxylated/(hydroxylated+non-hydroxylated peptide). IC50 values were determined from non-linear regression plots using GraphPad prism.
Example 158—Structure activity relationship (SAR) studies for PHD inhibition SAR studies for PHD inhibition were carried out on the compounds of the invention. Compounds were screened against PHD2 using the RF-MS hydroxylation assay.

HIF1-α in Hep3B cells = assay: Immunoblots of Hep3B cells; assay type: cell-based; conditions: 100 μM and 20 μM, 3 hours
Procedure: Example 159—Immunoblots of Hep3B cells treated with compounds of the invention Hep3B cells were treated with 117, 119, 122 and 123 of the invention (Examples 93, 95, 98 and 99) at 100 μM (A) and 20 μM (B) PHD inhibitors for 3 hours. The blots show protein levels of HIF1-α and β-actin at the 3rd hour after treatment.

[1] = tested on: MV411 AML cells in NBSGW recipient mice; assay: MV411 xenotransplantation in NBSGW mice, combination with Venetoclax; assay type: in vivo, mouse; conditions: 14 days treatment; IOX5 i.p. twice daily, Venetoclax o.g. once daily
Procedure: 14 days following transplantation, recipient mice were treated with IOX5 (68, example 46), Venetoclax or vehicle control. Dosing regimen consisted of 2× daily via i.p. injection (IOX5 (68, example 46) or vehicle) and/or 1× daily via o.g. (Venetoclax or vehicle). […] (E-G) Percentage of human CD45+CD33+CD14+ cells in the BM, spleen and liver, respectively (n=5). (H) Survival curve of mice treated with IOX5 (68, example 46), Venetoclax, IOX5 (68, example 46)+Venetoclax or vehicle control (n=6-7). (I-J) Proliferation and Annexin-V+DAPI+analyses, respectively, of THP-1 cells treated with Ven, IOX5, FIH inhibitor (FIHi; DM-NOFD), IOX5 (68, example 46)+FIHi, IOX5 (68, example 46)+Ven, FIHi+Ven, IOX5 (68, example 46)+FIHi+Ven or vehicle control (n=6). Statistical significance represented as in (A-B). Data represent mean±SEM; *p<0.05; ** p<0.01; *** p<0.001; **** p<0.0001.
100,000 THP-1 cells, 100,000 OCI-AM3 cells or 100,000 MV411 cells (for combination experiments) were tail vein injected into non-irradiated 10-to 12-week-old mixed gender NBSGW mice and began drug treatment 14 days after transplantation. […] Mice were culled 5 weeks after transplantation.
Mice in combination treatment experiments with Venetoclax (ABT-199) (MCE) were dosed once daily with 100 mg/kg via oral gavage (o.g.).
Further to findings in Example 170, the efficacy of IOX5 (68, example 46)+Venetoclax combination in vivo was investigated (FIG. 38D). MV411 AML cells were engrafted (with MLL-AF4 and FLT3-ITD mutation) and the recipient mice were treated with a vehicle, IOX5 (68, example 46), Venetoclax, and a combination of IOX5 (68, example 46)+Venetoclax.

human THP-1 cells = assay: Proliferation and apoptosis of THP-1 cells; assay type: cell-based
Description: (§1) Viable cells were counted by trypan blue exclusion at the indicated time points. To analyse cells undergoing apoptosis, cells were suspended in binding buffer containing PE-conjugated Annexin-V or FITC-conjugated Annexin-V, and either PI or DAPI.
To determine consequences of Daprodustat (2) and IOX5 (68, example 46) treatment on AML cells driven by the MLL-AF9→MEIS1/HOXA9 axis, mouse iMLL-AF9-and Meis1Hoxa9-transformed AML cells were employed, as well as human THP-1 cells, which harbour the MIL-AF9 translocation. […] Thus, providing compelling evidence that PHD inhibition compromises AML cells driven by the MLL-AF9→MEIS1/HOXA9 axis.

[2] = tested on: THP-1, MOLM13, OCI-AML3 and MV411 cells; assay: Proliferation and apoptosis of human AML cell lines THP-1, MOLM13, OCI-AML3 and MV411; assay type: cell-based; conditions: 50 μM, single agent
Procedure: (A-B) Proliferation and apoptosis of human AML cell lines THP-1, MOLM13, OCI-AML3 and MV411 treated with vehicle control and 50 μM Molidustat (5). Data represent mean±SEM; **** p<0.0001.
(A-B) Proliferation and apoptosis of human AML cell lines MOLM-13, OCI-AML3, MV411 and THP-1 treated with vehicle control, 50 μM Daprodustat (2), 50 μM IOX5 (68, example 46), 0.1 μM Venetoclax (MOLM-13 and MV411), 0.01 μM Venetoclax (OCI-AML3 and THP-1) and combination therapy. (C-D) Early-([…]) and late stage (PI^+ Annexin^+) apoptosis of human AML patient samples treated with vehicle control, 50 μM Daprodustat (2), 50 μM IOX5 (68, example 46), 0.01 μM Venetoclax and combination therapy. Data represent mean±SEM; * p<0.05; ** p<0.01, *** p<0.001, **** p<0.0001.
as §1

[3] = tested on: other 2OG oxygenases (off-target sites commonly inhibited by existing PHD inhibitors); assay: Selectivity versus other 2OG oxygenases / off-target sites (FIG. 14); assay type: biochemical
HIF1-α in HEK293 T cells = assay: Immunoblots of HEK293 T cells; assay type: cell-based; conditions: HEK293 T cells, 0.5, 1, 5, 10, 20, 50 and 100 μM, 18 hours
Procedure: Cells were grown to 90% confluency.
Protocols for cell culture and immunoblotting were performed using the established methods.

[4] = biological target: KDM4A: lysine specific demethylase 4A (Homo sapiens (Human), UniProt O75164); assay: KDM4A LCMS demethylation assay
Procedure: (§2) 4 ml of enzyme reaction were injected and loaded onto a ZORBAX RRHD Eclipse Plus C18 column (Agilent Technologies, CA, US). Solvent A consisted of LCMS grade water containing 0.1% (v/v) formic acid and solvent B consisted of acetonitrile containing 0.1% (v/v) formic acid. […] The mass spectrometer was operated in the positive ion mode with a drying gas temperature of 280° C., drying gas flow rate of 13 L/min, nebulizer pressure of 40 psig, sheath gas temperature of 350° C., sheath gas flow rate of 12 L/min, capillary voltage of 4000 V, nozzle voltage of 1000 V. All acquired data were analyzed using Agilent MassHunter Qualitative Analysis (Version B.07.00) software.

[5] = biological target: KDM5B: lysine specific demethylase 5B (Homo sapiens (Human), UniProt Q9UGL1); assay: KDM5B LCMS demethylation assay
Procedure: KDM5B enzyme reactions were performed under optimized buffer conditions (50 mM MES pH 7.0, 50 mM NaCl, 1 mM TCEP). […] The enzyme reaction was progressed for 30 minutes, and the reaction stopped by addition of formic acid to a final concentration of 1% (v/v). Control reactions included a 0.5% DMSO control and a reaction with a known inhibitor of KDM5B (10 mM KDOAM25, ^i).
as §2

[6] = biological target: KDM6B: lysine specific demethylase 6B (Homo sapiens (Human), UniProt O15054); assay: KDM6B LCMS demethylation assay
Chain of KDM6B: lysine specific demethylase 6B (O15054 1141-1590): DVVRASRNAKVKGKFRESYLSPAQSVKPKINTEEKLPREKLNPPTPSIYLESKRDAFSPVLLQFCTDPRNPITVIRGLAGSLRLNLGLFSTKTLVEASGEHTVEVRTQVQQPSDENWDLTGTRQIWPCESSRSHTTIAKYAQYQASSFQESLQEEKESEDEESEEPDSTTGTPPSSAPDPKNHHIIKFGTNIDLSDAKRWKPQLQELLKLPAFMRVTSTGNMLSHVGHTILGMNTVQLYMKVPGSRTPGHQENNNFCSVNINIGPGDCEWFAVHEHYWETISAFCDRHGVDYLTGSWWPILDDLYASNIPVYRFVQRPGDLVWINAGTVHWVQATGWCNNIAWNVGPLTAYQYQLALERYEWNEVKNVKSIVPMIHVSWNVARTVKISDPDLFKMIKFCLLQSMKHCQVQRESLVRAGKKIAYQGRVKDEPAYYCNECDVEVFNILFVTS
Procedure: The peptide substrate for KDM5B was a 21-mer histone-H3 peptide (ARTK(me3)[sequence]), as synthesized by Peptide Protein Research (Hampshire, UK). The KDM6B peptide substrate was a 17-mer histone-H3 peptide ([sequence](me3)[sequence]), as synthesized by GL Biochem (Shanghai) Ltd (Shanghai, China).
KDM6B reactions were performed under optimized buffer conditions (50 mM MES pH 7.0). […] The enzyme reaction was progressed for 30 minutes and the reaction stopped by addition of formic acid to a final concentration of 1% (v/v). Control reactions included a 0.5% DMSO control and a reaction with a known inhibitor of KDM6B (10 mM GSKJ1,^j).
as §2

Chain of PHD2 (Q9GZT9 181-426): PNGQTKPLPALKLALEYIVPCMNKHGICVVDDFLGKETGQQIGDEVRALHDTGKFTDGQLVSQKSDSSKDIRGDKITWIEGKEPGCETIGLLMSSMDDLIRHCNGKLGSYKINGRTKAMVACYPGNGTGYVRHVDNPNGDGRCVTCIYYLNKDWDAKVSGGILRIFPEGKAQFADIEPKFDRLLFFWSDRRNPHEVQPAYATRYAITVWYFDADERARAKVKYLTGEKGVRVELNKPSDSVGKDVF
Chain of KDM4A: lysine specific demethylase 4A (O75164 1-359): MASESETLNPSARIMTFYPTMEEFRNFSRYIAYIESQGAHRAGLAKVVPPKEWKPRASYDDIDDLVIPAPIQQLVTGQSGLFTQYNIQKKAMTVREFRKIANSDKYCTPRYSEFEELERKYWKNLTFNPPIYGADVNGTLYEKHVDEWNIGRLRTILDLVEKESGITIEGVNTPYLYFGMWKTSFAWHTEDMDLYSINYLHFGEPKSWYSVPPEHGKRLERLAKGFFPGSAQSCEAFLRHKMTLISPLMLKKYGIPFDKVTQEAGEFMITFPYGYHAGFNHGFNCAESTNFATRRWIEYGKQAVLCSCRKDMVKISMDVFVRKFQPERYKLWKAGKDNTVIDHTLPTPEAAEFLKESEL
Chain of KDM5B: lysine specific demethylase 5B (Q9UGL1 1-822): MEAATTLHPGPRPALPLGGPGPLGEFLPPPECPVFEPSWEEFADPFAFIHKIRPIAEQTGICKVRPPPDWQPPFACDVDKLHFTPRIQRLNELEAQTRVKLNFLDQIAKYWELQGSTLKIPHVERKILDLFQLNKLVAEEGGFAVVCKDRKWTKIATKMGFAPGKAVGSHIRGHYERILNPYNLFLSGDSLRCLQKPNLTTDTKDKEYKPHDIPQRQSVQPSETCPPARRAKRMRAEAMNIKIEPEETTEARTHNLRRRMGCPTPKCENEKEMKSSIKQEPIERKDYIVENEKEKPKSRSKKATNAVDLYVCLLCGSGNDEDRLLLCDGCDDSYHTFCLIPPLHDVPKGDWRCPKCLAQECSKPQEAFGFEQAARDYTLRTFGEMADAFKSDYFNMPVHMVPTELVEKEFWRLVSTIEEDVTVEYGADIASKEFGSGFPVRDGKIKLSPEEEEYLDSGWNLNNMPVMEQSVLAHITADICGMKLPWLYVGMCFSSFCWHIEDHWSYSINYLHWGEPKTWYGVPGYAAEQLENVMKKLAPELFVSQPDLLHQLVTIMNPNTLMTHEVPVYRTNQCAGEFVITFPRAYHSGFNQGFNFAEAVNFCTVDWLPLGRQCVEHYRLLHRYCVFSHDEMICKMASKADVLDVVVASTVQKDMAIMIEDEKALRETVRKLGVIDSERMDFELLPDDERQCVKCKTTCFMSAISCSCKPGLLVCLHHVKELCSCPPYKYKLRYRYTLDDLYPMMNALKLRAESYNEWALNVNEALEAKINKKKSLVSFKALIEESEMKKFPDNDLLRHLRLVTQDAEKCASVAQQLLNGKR

IC50 (PHD2) [µM] | Compound | protein level of HIF1-α (immunoblot) (HIF1-α in Hep3B cells) | other results
0.001 to 1 | O=C(Nc1ccc(-c2ccccc2)cc1)c1cnc2c(cnc3ccnn32)c1O [Compound 119, N-([1,1′-Biphenyl]-4-yl)-6-hydroxypyrazolo[1,5-a]pyrido[3,2-e]pyrimidine-7-carboxamide] | increase HIF-1α | 
0.001 to 1 | Cc1cc2nc(C)c3c(O)c(C(=O)NCc4ccc(-c5ccccc5)cc4)cnc3n2n1 [Compound 122, N-([1,1′-Biphenyl]-4-ylmethyl)-6-hydroxy-2,5-dimethylpyrazolo[1,5-a]pyrido[3,2-e]pyrimidine-7-carboxamide] | increase HIF-1α | 
0.001 to 1 | Cc1cc2nc(C)c3c(O)c(C(=O)NCc4ccc(C(F)(F)F)cc4)cnc3n2n1 [Compound 123, 6-Hydroxy-2,5-Dimethyl-N-(4-(trifluoromethyl)benzyl) pyrazolo[1,5-a]pyrido[3,2-e]pyrimidine-7-carboxamide] | increase HIF-1α | 
> 10 | O=C(NCc1ccc(-c2ccccc2)cc1)c1cnc(-n2cccn2)nc1 [Compound 20, N-([1,1′-Biphenyl]-4-ylmethyl)-2-(1H-pyrazol-1-yl)pyrimidine-5-carboxamide] |  | 
1 to 10 | Cc1cc2nc(C)c3c(O)c(C(=O)NCc4ccc(-c5cccc(N6CCOCC6)c5)nc4)cnc3n2n1 [Compound 176, 6-hydroxy-2,5-dimethyl-N-((6-(3-morpholinophenyl)pyridin-3-yl)methyl) pyrazolo[1,5-a]pyrido[3,2-e]pyrimidine-7-carboxamide] |  | 
0.001 to 1 | O=C(O)c1cnn(-c2cc(O)c(C(=O)NCc3ccc(-c4ccccc4)cc3)cn2)c1 [Compound 84, 1-(5-(([1,1′-Biphenyl]-4-ylmethyl)carbamoyl)-4-hydroxypyridin-2-yl)-1H-pyrazole-4-carboxylic acid] |  | 

Continued, molecule first:

Compound | IC50 (PHD2) [µM] | protein level of HIF1-α (immunoblot) (HIF1-α in Hep3B cells) | other results
CC1(C)CCC(CN2CCN(c3ccc(C(=O)NS(=O)(=O)c4ccc(NCC5CCOCC5)c([N+](=O)[O-])c4)c(Oc4cnc5[nH]ccc5c4)c3)CC2)=C(c2ccc(Cl)cc2)C1 [Venetoclax, venetoclax, reference compound] |  |  | leukaemic burden [1]: decreased leukaemic burden; survival of recipient mice [1]: extended survival of the recipient mice
Cc1nc(C(=O)NCC(=O)O)c(O)c2ccc(Oc3ccccc3)cc12 [roxadustat] |  |  | proliferation (human THP-1 cells; THP-1, 50 μM): strong anti-leukaemic activity
O=c1c(-n2ccnn2)c[nH]n1-c1cc(N2CCOCC2)ncn1 [molidustat] |  |  | cell death (apoptosis) [2]: induced cell death; proliferation [2]: reduced proliferation
O=C(NCc1ccc(-c2ccccc2)cc1)c1cnc2c(cnc3ccnn32)c1O [Compound 117, N-([1,1′-Biphenyl]-4-ylmethyl)-6-hydroxypyrazolo[1,5-a]pyrido[3,2-e]pyrimidine-7-carboxamide] | 0.001 to 1 | increase HIF-1α | 
COC(=O)C(=O)N[C@H](Cc1ccccc1)C(=O)OC [DM-NOFD, dimethyl N-oxalyl-D-phenylalanine] |  |  | proliferation and survival (Annexin-V+DAPI+) of AML cells (human THP-1 cells; THP-1 cells, FIH inhibitor DM-NOFD alone or combined): no impact on proliferation and survival of AML cells
O=C(NCC1CCC(C(F)(F)F)CC1)c1cnc(-n2cccn2)cc1O (stereo not shown) [Compound 68, 4-Hydroxy-6-(1H-pyrazol-1-yl)-N-((4-(trifluoromethyl)cyclohexyl)methyl) nicotinamide] |  |  | IC50 for off-target sites [3]: very high IC50; protein level of HIF1-α (immunoblot) (HIF1-α in HEK293 T cells): increase cellular HIF-1α; IC50 [4]: > 100 µM; IC50 [5]: > 100 µM; IC50 [6]: > 100 µM
